Measurements reported in patent US20250051338A1, “TYK2 DEGRADERS AND USES THEREOF” (Kymera Therapeutics, Inc., priority 2021, published 2025).

Key:
Type in all cases: cell-based
TYK2 [1] = molecular target: T1, TYK2 (Homo sapiens, UniProt P29597); assay: TYK2 degradation MSD assay in human PBMC cells; set-up: endogenous in cells; host or cells: human PBMC; conditions: 4 to 24 hours incubation, read-out: TYK2 MSD DC50 rating in human PBMC
Summary of the method: (§1)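 MSD electrochemiluminescence readout of residual TYK2 in RIPA lysates after 4–24 h compound exposure at 37° C. Dosing: 9 concentrations, 1:3 steps, top 1 to 10 μM. DC50 fitted by four-parameter inhibitor vs. response regression.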

TYK2 [2] = molecular target: T1, TYK2; assay: TYK2 degradation MSD assay in EBV-B cells; set-up: endogenous in cells; host or cells: EBV-B cells; conditions: 4 to 24 hours incubation, read-out: TYK2 MSD DC50 rating in EBV-B
Summary of the method: as §1

TYK2 [3] = molecular target: T1, TYK2; assay: TYK2 degradation MSD assay in OCI-LY10 cells; set-up: endogenous in cells; host or cells: EBV-B cells; conditions: 4 to 24 hours incubation, read-out: TYK2 MSD DC50 rating in OCI-LY10
Summary of the method: as §1

T1 sequence (P29597 whole entry): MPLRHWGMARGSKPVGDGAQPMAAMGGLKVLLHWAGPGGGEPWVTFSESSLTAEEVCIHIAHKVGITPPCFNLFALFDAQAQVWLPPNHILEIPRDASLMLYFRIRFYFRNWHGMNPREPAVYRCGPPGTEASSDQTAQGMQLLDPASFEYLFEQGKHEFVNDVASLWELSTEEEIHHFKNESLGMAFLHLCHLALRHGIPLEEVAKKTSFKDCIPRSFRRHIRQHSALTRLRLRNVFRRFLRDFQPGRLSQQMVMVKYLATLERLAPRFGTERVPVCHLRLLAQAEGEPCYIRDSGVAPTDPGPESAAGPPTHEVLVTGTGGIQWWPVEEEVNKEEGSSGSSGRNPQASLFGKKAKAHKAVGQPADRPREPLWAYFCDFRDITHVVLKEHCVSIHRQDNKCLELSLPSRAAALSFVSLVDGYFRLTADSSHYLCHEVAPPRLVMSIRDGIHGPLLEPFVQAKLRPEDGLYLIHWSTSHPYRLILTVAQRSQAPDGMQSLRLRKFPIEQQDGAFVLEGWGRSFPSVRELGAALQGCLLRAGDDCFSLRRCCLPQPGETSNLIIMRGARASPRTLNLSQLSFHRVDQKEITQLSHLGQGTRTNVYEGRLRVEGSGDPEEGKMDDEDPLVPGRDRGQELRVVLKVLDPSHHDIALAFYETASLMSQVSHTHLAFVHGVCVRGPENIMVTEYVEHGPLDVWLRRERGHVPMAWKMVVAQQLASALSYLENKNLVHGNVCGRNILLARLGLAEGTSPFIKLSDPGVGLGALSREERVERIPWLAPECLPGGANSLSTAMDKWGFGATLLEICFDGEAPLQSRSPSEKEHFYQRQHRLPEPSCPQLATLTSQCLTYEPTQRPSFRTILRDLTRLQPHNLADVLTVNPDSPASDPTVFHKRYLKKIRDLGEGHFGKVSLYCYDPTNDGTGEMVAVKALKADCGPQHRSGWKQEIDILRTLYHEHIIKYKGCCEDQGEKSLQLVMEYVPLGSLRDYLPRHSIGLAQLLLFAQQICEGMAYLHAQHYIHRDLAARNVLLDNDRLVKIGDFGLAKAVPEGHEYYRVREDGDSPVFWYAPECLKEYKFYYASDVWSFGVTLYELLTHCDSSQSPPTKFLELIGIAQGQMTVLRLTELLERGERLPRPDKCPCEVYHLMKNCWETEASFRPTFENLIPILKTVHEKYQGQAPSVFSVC

SMILES | DC50 (TYK2 [1]) [nM] | DC50 (TYK2 [2]) [nM] | DC50 (TYK2 [3]) [nM]
CNc1cc(Nc2cccn(-c3cccc(C(=O)NCCCCc4ccc5c(c4)n(C)c(=O)n5C4CCC(=O)NC4=O)c3)c2=O)nn2c(C(=O)N[C@@H]3C[C@@H]3F)cnc12 (stereo partly drawn) [Example K227] | > 100 | > 100 | > 100
CNc1cc(Nc2cccn(-c3cc(C(=O)NCCCCCCc4ccc5c(c4)n(C)c(=O)n5C4CCC(=O)NC4=O)ccn3)c2=O)nn2c(C(=O)N[C@@H]3C[C@@H]3F)cnc12 (stereo partly drawn) [Example K229] | < 1 | > 100 | > 100
CNc1cc(Nc2cccn(-c3cc(C(=O)NCCCCCCCCc4ccc5c(c4)n(C)c(=O)n5C4CCC(=O)NC4=O)ccn3)c2=O)nn2c(C(=O)N[C@@H]3C[C@@H]3F)cnc12 (stereo partly drawn) [Example K231] | < 1 | > 100 | > 100
CNc1cc(Nc2cccn(-c3cc(C(=O)NCCCCCCCCc4cccc5c4n(C)c(=O)n5C4CCC(=O)NC4=O)ccn3)c2=O)nn2c(C(=O)N[C@@H]3C[C@@H]3F)cnc12 (stereo partly drawn) [Example K232] | 1 to 10 | > 100 | > 100
CNc1cc(Nc2cccn(-c3cccc(C(=O)NCCOCCOCCc4cccc5c4n(C)c(=O)n5C4CCC(=O)NC4=O)c3)c2=O)nn2c(C(=O)N[C@@H]3C[C@@H]3F)cnc12 (stereo partly drawn) [Example K236] | 1 to 10 | > 100 | > 100
CNc1cc(Nc2cccn(-c3cc(C(=O)NCCOCCOCCc4ccc5c(c4)n(C)c(=O)n5C4CCC(=O)NC4=O)ccn3)c2=O)nn2c(C(=O)N[C@@H]3C[C@@H]3F)cnc12 (stereo partly drawn) [Example K237] | > 100 | > 100 | > 100
CNc1cc(Nc2cccn(-c3cc(C(=O)NCCOCCOCCc4cccc5c4n(C)c(=O)n5C4CCC(=O)NC4=O)ccn3)c2=O)nn2c(C(=O)N[C@@H]3C[C@@H]3F)cnc12 (stereo partly drawn) [Example K238] | > 100 | > 100 | > 100
CNc1cc(Nc2cccn(-c3cccc(C(=O)NCCOCCOCCOCCOCCc4ccc5c(c4)n(C)c(=O)n5C4CCC(=O)NC4=O)c3)c2=O)nn2c(C(=O)N[C@@H]3C[C@@H]3F)cnc12 (stereo partly drawn) [Example K239] | > 100 | > 100 | > 100
CNc1cc(Nc2cccn(-c3cc(C(=O)NCCOCCOCCOCCOCCc4cccc5c4n(C)c(=O)n5C4CCC(=O)NC4=O)ccn3)c2=O)nn2c(C(=O)N[C@@H]3C[C@@H]3F)cnc12 (stereo partly drawn) [Example K242] | > 100 | > 100 | > 100
CNc1cc(Nc2cccn(-c3cccc(C(=O)NCCOCCOCCOCCOCCOCCOCCc4ccc5c(c4)n(C)c(=O)n5C4CCC(=O)NC4=O)c3)c2=O)nn2c(C(=O)N[C@@H]3C[C@@H]3F)cnc12 (stereo partly drawn) [Example K243] | > 100 | > 100 | > 100
CNc1cc(Nc2cccn(-c3cc(C(=O)NCCOCCOCCOCCOCCOCCOCCc4cccc5c4n(C)c(=O)n5C4CCC(=O)NC4=O)ccn3)c2=O)nn2c(C(=O)N[C@@H]3C[C@@H]3F)cnc12 (stereo partly drawn) [Example K244] | > 100 | > 100 | > 100
CNc1cc(Nc2cccn(-c3cc(C(=O)NCCOCCOCCOCCOCCOCCOCCc4ccc5c(c4)n(C)c(=O)n5C4CCC(=O)NC4=O)ccn3)c2=O)nn2c(C(=O)N[C@@H]3C[C@@H]3F)cnc12 (stereo partly drawn) [Example K245] | > 100 | > 100 | > 100
CNc1cc(Nc2cccc(C(=O)NCCCCc3ccc4c(c3)n(C)c(=O)n4C3CCC(=O)NC3=O)c2)nn2c(C(=O)N[C@@H]3C[C@@H]3F)cnc12 (stereo partly drawn) [Example K247] | > 100 | > 100 | > 100
CNc1cc(Nc2cccc(C(=O)NCCCCc3cccc4c3n(C)c(=O)n4C3CCC(=O)NC3=O)c2)nn2c(C(=O)N[C@@H]3C[C@@H]3F)cnc12 (stereo partly drawn) [Example K248] | > 100 | > 100 | > 100
CNc1cc(Nc2cccc(C(=O)NCCCCCCc3cccc4c3n(C)c(=O)n4C3CCC(=O)NC3=O)c2)nn2c(C(=O)N[C@@H]3C[C@@H]3F)cnc12 (stereo partly drawn) [Example K250] | < 1 | > 100 | > 100
CNc1cc(Nc2cccc(C(=O)NCCCCCCCCc3ccc4c(c3)n(C)c(=O)n4C3CCC(=O)NC3=O)c2)nn2c(C(=O)N[C@@H]3C[C@@H]3F)cnc12 (stereo partly drawn) [Example K251] | < 1 | > 100 | > 100
CNc1cc(Nc2ccccc2C(=O)NCCCCc2ccc3c(c2)n(C)c(=O)n3C2CCC(=O)NC2=O)nn2c(C(=O)N[C@@H]3C[C@@H]3F)cnc12 (stereo partly drawn) [Example K252] | > 100 | > 100 | > 100
CNc1cc(Nc2ccccc2C(=O)NCCCCc2cccc3c2n(C)c(=O)n3C2CCC(=O)NC2=O)nn2c(C(=O)N[C@@H]3C[C@@H]3F)cnc12 (stereo partly drawn) [Example K253] | > 100 | > 100 | > 100
CNc1cc(Nc2cccc(C(=O)NCCCCCCCCc3cccc4c3n(C)c(=O)n4C3CCC(=O)NC3=O)c2)nn2c(C(=O)N[C@@H]3C[C@@H]3F)cnc12 (stereo partly drawn) [Example K254] | 1 to 10 | > 100 | > 100
CNc1cc(Nc2ccccc2C(=O)NCCCCCCCCc2ccc3c(c2)n(C)c(=O)n3C2CCC(=O)NC2=O)nn2c(C(=O)N[C@@H]3C[C@@H]3F)cnc12 (stereo partly drawn) [Example K256] | < 1 | > 100 | > 100
CNc1cc(Nc2ccccc2C(=O)NCCCCCCc2cccc3c2n(C)c(=O)n3C2CCC(=O)NC2=O)nn2c(C(=O)N[C@@H]3C[C@@H]3F)cnc12 (stereo partly drawn) [Example K257] | 1 to 10 | > 100 | 10 to 100
CNc1cc(Nc2ccccc2C(=O)NCCCCCCCCc2cccc3c2n(C)c(=O)n3C2CCC(=O)NC2=O)nn2c(C(=O)N[C@@H]3C[C@@H]3F)cnc12 (stereo partly drawn) [Example K258] | < 1 | > 100 | > 100
CNc1cc(Nc2cccn(-c3ccc(C(=O)NCCCCc4cccc5c4n(C)c(=O)n5C4CCC(=O)NC4=O)cn3)c2=O)nn2c(C(=O)N[C@@H]3C[C@@H]3F)cnc12 (stereo partly drawn) [Example K259] | > 100 | > 100 | > 100
CNc1cc(Nc2cccn(-c3ccc(C(=O)NCCCCCCCc4ccc5c(c4)n(C)c(=O)n5C4CCC(=O)NC4=O)cn3)c2=O)nn2c(C(=O)N[C@@H]3C[C@@H]3F)cnc12 (stereo partly drawn) [Example K260] | < 1 | > 100 | > 100
CNc1cc(Nc2cccn(-c3ccc(C(=O)NCCCCCCCCCCc4ccc5c(c4)n(C)c(=O)n5C4CCC(=O)NC4=O)cn3)c2=O)nn2c(C(=O)N[C@@H]3C[C@@H]3F)cnc12 (stereo partly drawn) [Example K261] | < 1 | 1 to 10 | > 100

Continued, values first:

DC50 (TYK2 [1]) [nM] | DC50 (TYK2 [2]) [nM] | DC50 (TYK2 [3]) [nM] | SMILES
1 to 10 | > 100 | > 100 | CNc1cc(Nc2cccn(-c3cccc(C(=O)NCCCCCCCCCCc4ccc5c(c4)n(C)c(=O)n5C4CCC(=O)NC4=O)c3)c2=O)nn2c(C(=O)N[C@@H]3C[C@@H]3F)cnc12 (stereo partly drawn) [Example K225]
10 to 100 | > 100 | > 100 | CNc1cc(Nc2cccn(-c3cccc(C(=O)NCCCCCCCCCCc4cccc5c4n(C)c(=O)n5C4CCC(=O)NC4=O)c3)c2=O)nn2c(C(=O)N[C@@H]3C[C@@H]3F)cnc12 (stereo partly drawn) [Example K226]
1 to 10 | > 100 | > 100 | CNc1cc(Nc2cccn(-c3cc(C(=O)NCCCCc4cccc5c4n(C)c(=O)n5C4CCC(=O)NC4=O)ccn3)c2=O)nn2c(C(=O)N[C@@H]3C[C@@H]3F)cnc12 (stereo partly drawn) [Example K228]
1 to 10 | > 100 | > 100 | CNc1cc(Nc2cccn(-c3cc(C(=O)NCCCCCCc4cccc5c4n(C)c(=O)n5C4CCC(=O)NC4=O)ccn3)c2=O)nn2c(C(=O)N[C@@H]3C[C@@H]3F)cnc12 (stereo partly drawn) [Example K230]
1 to 10 | 1 to 10 | > 100 | CNc1cc(Nc2cccn(-c3cc(C(=O)NCCCCCCCCCCc4ccc5c(c4)n(C)c(=O)n5C4CCC(=O)NC4=O)ccn3)c2=O)nn2c(C(=O)N[C@@H]3C[C@@H]3F)cnc12 (stereo partly drawn) [Example K233]
> 100 | > 100 | > 100 | CNc1cc(Nc2cccn(-c3cc(C(=O)NCCCCCCCCCCc4cccc5c4n(C)c(=O)n5C4CCC(=O)NC4=O)ccn3)c2=O)nn2c(C(=O)N[C@@H]3C[C@@H]3F)cnc12 (stereo partly drawn) [Example K234]
1 to 10 | > 100 | > 100 | CNc1cc(Nc2cccn(-c3cccc(C(=O)NCCOCCOCCc4ccc5c(c4)n(C)c(=O)n5C4CCC(=O)NC4=O)c3)c2=O)nn2c(C(=O)N[C@@H]3C[C@@H]3F)cnc12 (stereo partly drawn) [Example K235]
> 100 | > 100 | > 100 | CNc1cc(Nc2cccn(-c3cccc(C(=O)NCCOCCOCCOCCOCCc4cccc5c4n(C)c(=O)n5C4CCC(=O)NC4=O)c3)c2=O)nn2c(C(=O)N[C@@H]3C[C@@H]3F)cnc12 (stereo partly drawn) [Example K240]
> 100 | > 100 | > 100 | CNc1cc(Nc2cccn(-c3cc(C(=O)NCCOCCOCCOCCOCCc4ccc5c(c4)n(C)c(=O)n5C4CCC(=O)NC4=O)ccn3)c2=O)nn2c(C(=O)N[C@@H]3C[C@@H]3F)cnc12 (stereo partly drawn) [Example K241]
> 100 | > 100 | > 100 | CNc1cc(Nc2cccc(C(=O)NCCCCCCc3ccc4c(c3)n(C)c(=O)n4C3CCC(=O)NC3=O)c2)nn2c(C(=O)N[C@@H]3C[C@@H]3F)cnc12 (stereo partly drawn) [Example K249]
< 1 | > 100 | > 100 | CNc1cc(Nc2ccccc2C(=O)NCCCCCCc2ccc3c(c2)n(C)c(=O)n3C2CCC(=O)NC2=O)nn2c(C(=O)N[C@@H]3C[C@@H]3F)cnc12 (stereo partly drawn) [Example K255]
